Test results: patent publication US9872851B2, “Methods of treating portal hypertension” (The Charlotte-Mecklenburg Hospital Authority, priority 2012, dated 2018)

Legend:
primary HSCs [1] = assay: Oil Red O staining / adipogenesis of HSCs; format: cell-based, rat
Method: FIGS. 3A-B illustrate how modulation of Rev-erbα activity can regulate adipogenesis. Primary HSCs were culture-activated for 5 days (A) or 15 days (B). Cells were treated with vehicle, DMSO (open bar), or Rev-erb agonist SR6452 ([…], solid bar). FIG. 3A provides a graph summarizing the amount of PPARγ, SREBP1, and Lep mRNA detected after 5 days of culture.
(§1) Primary rat HSCs were isolated by pronase/collagenase perfusion digestion followed by density gradient centrifugation with Optiprep. Media was replaced every other day to replenish Rev-erb modulator SR6452, which was present at a 10 μM concentration. Cells were treated with MDIR mixture (IBMX, dexamethasone, insulin, rosiglitazone), TGFβ, or DMSO (vehicle). Some experiments were performed with the human HSC cell line, LX-2.
(§2) FIGS. 3A-B illustrates that modulation of Rev-erbα activity can regulate adipogenesis. Primary HSCs were culture-activated for 5 days (A) or 15 days (B). Cells were treated with vehicle (DMSO, open bar), or the Rev-erb modulator SR6452 (10 mM, purple bar) for the days indicated. The medium was changed every 48 hrs. FIG. 3A provides a chart summarizing the amount of PPARγ, SREBP1, and Lep mRNA on day 5.

primary rat HSCs [2] = assay: qRT-PCR gene expression in culture-activated primary rat HSCs; format: cell-based
Method: (§3) A series of experiments were conducted to determine the functional role of Rev-erbα in HSC transdifferentiation. In these experiments, culture-activated primary rat HSCs and human LX-2 cells were used. To determine the effect of Rev-erbα on HSC transdifferentiation and contraction, cells were treated with a specific synthetic modulator, SR6452 (10 μM). mRNA and protein expression were determined by qRT-PCR and Western blot, respectively. Changes in cellular morphology, Rev-erbα expression/localization and αSMA expression were observed by confocal microscopy. Additionally, cell contractility was assessed.
as §1
mRNA expression was normalized to 18S rRNA.
as §2
FIGS. 4A-B illustrate that the Rev-erb modulator SR6452 can suppress/decrease ECM gene expression. Primary rat HSCs were cultured from quiescence (day Q) to day 5 (FIG. 4A) or from day 9 to day 12 (FIG. 4B) and treated with Rev-erb modulator SR6452. qRT-PCR was performed to determine ECM gene expression. DMSO was used as the vehicle control, while SR6452 was used as the Rev-erb modulator.
(§4) FIGS. 5A-D illustrate that Rev-erb modulator SR6452 can regulate myofibroblast marker expression and HSC contraction. Primary rat HSCs were cultured from quiescence (day Q) to day 5 (FIG. 5A) or from day 9 to day 12 (FIG. 5B) and treated with Rev-erb modulator SR6452. qRT-PCR was performed for myofibroblast gene expression. Samples were normalized with 18S rRNA. […] HSCs (day 5) were embedded in a collagen gel and treated as indicated for 48 hrs. Gels were then released from plastic surface and contraction monitored after 72 hrs. Materials used were DMSO (vehicle control), SR6452, Rev-erb modulator; and BDM (2,3-Butanedione monoxime), myosin inhibitor.

cirrhotic rats = assay: Hemodynamic measurements in bile duct-ligated (BDL) rats; format: in vivo, rat; conditions: 10 μM/kg femoral vein, one hour
Method: Studies were performed to determine the in vivo efficacy of using SR6452 as a treatment for portal hypertension. Rats underwent bile duct-ligation (˜5 weeks, until ascites developed) to induce fibrosis and thus portal hypertension. Initial hemodynamic measurements were taken prior to addition of the agonist. SR6452 (10 μM/kg body weight) was administered via the femoral vein and measurements taken again one hour after administration. Experiments were performed 5 weeks after male Sprague-Dawley rats underwent bile duct-ligation (BDL), when cirrhosis was fully established and ascites present. SR6452 (10 μM/kg body weight) was administered via the femoral vein and hemodynamic measurements taken one hour after administration. Hemodynamic studies were performed as previously described (J Hepatol 2012 57:1220-1227). Briefly, a laparotomy was performed under anesthesia. A PE-50 catheter was introduced into a small ileocolic vein and advanced to the portal vein for measurement of portal pressure. The left femoral artery and vein were cannulated with PE-50 catheters for measurement of mean arterial pressure, central venous pressure and blood withdrawal. Via the right carotid artery, another PE-50 catheter was advanced into the left ventricle under pulse curve control, for microsphere application. After insertion of all catheters, rats were allowed to stabilize hemodynamically for 30 min. Cardiac output and organ perfusions were measured using the colored microsphere method as described (J Hepatol 2012 57:1220-1227). Briefly, 300,000 systemic (yellow) microspheres (15 μm diameter) were injected in the left ventricle. The mesenteric portal-systemic shunt volume was estimated after injection of 150,000 blue microspheres in an ileocolic vein.

primary HSCs [3] = assay: Immunocytochemistry (αSMA, DAPI) and cellular morphology by confocal microscopy; format: cell-based, rat; conditions: HSCs (day 9) treated 72 hrs
Method: as §3
Prior to transfection, culture-activated HSCs (for varying days of activation) were seeded onto glass coverslips. Cells were fixed with 4% paraformaldehyde and stained with anti-αSMA antibody, a marker of HSC activation. Cells were imaged using a Zeiss confocal microscope. The fluorescence indicates Rev-erbα or αSMA expression.
FIGS. 5A-D illustrate that Rev-erb modulator SR6452 can regulate myofibroblast marker expression and HSC contraction. Primary rat HSCs were cultured from quiescence (day Q) to day 5 (FIG. 5A) or from day 9 to day 12 (FIG. 5B) and treated with Rev-erb modulator SR6452. qRT-PCR was performed for myofibroblast gene expression. Samples were normalized with 18S rRNA. […] Gels were then released from plastic surface and contraction monitored after 72 hrs. […]

primary rat HSCs [4] = assay: Cell contraction assay (collagen lattice); format: cell-based; conditions: collagen gel, SR6452
Method: Primary rat HSCs (day 9, 2-5×10^6 cells/ml) were embedded in a collagen lattice per manufacturer's instructions. Cells were treated with synthetic Rev-erbα ligand SR6452. Collagen gel size change was imaged using a BioSpectrum Imaging System.
as §4

Rev-erbα = assay: Western blot of Rev-erbα in HSCs treated with pro- and anti-fibrogenic factors; format: cell-based, rat
Method: FIGS. 2A-B illustrate the regulation of Rev-erbα expression by pro- and anti-fibrogenic factors. […] Cells were harvested for protein and Western blots performed to detect Rev-erbα.
as §1
FIG. 2B show results from primary HSCs that were treated with pro-fibrogenic factor TGFβ (5 ng/ml) or myosin inhibitors blebbistatin (Bleb) or BDM (2,3-Butanedione monoxime) for 48 hrs. Cells were harvested for protein and Western blots performed to detect Rev-erbα.

[5] = SR6452 10 μM, day Q to day 5 or day 9 to day 12

## CC(C)(C)OC(=O)CN(Cc1ccc(Cl)cc1)Cc1ccc([N+](=O)[O-])s1 [SR6452]
Primary HSCs [1]; SR6452 10 μM, primary HSCs
  lipid content in activated HSCs: increased
Primary HSCs [1]; exposure of quiescent HSCs
  HSC adipogenesis: promoted
Primary rat HSCs [2]; [5]
  effects on major regulatory and structural genes controlling myofibroblast contraction: repressive effects
  expression of key extracellular matrix components, including Type I collagen, fibronectin, and tenascin C: significantly down-regulated
Primary rat HSCs [2]; SR6452 10 μM, mRNA, day 5
  expression of major adipogenic factors, notably PPARγ and SREBP1: up-regulated
Primary rat HSCs [2]; overall conclusion of the in vitro data
  effect on HSC activation: suppressive effect
Cirrhotic rats; mean, p=0.017
  portal pressure (PP) after SR6452: 19.1 mmHg
Cirrhotic rats; mean, p=0.043
  hepatic-portal vascular resistance after SR6452: 8.8 mmHg/min/100 g/ml
Cirrhotic rats; mean, p=0.048
  splanchnic vascular resistance after SR6452: 27.5 mmHg/min/100 g/ml
Cirrhotic rats; vs baseline
  reduction in hepatic-portal vascular resistance: 36%
  reduction in splanchnic vascular resistance: 13.5%
Primary HSCs [3]
  morphology of treated primary HSCs: slightly rounded/folded cytoplasm with disoriented actin fibers
Primary rat HSCs [4]
  HSC contraction: impeded

## TGFβ
Rev-erbα; TGFβ 5 ng/ml, 48 hrs
  cytoplasmic Rev-erbα: stabilized
Rev-erbα; Western blot
  Rev-erbα protein expression: increased
